Experimental findings from patent US5387518A, “Alkaline protease having stability in solution with anionic surfactant, method for producing the same, use thereof and microorganism producing the same” (priority 1991, dated 1995) are described below.

Like-named read-outs stand apart in the source and are kept apart here.

The assay concerns alkaline protease API-25 produced by Bacillus sp. SD523 (Bacillus firmus, FERM BP-3774). Type of assay: biochemical. The protocol: To 500 μl of a 50 mM Atkins-Pantin phosphate buffer solution (pH 10) is added 50 μl of an enzyme solution diluted appropriately, and the resulting mixture is preincubated at 30° C. for 3 to 5 minutes. Then, 500 μl of a 2% Hammerstein casein solution (pH 10) is added to the solution, and after 10 minutes 2 ml of TCA solution (0.132M TCA, adjusted to pH 4 with an acetate buffer solution) is added thereto to stop the reaction. After leaving it to stand at 30° C. for 10~15 minutes, the mixture is filtered using No. 2 filter paper (produced by Toyo Filter Paper Co., Ltd.). To 1 ml of the filtrate solution are added 5 ml of 0.4M sodium carbonate and 1 ml of 6-fold diluted phenol reagent. After leaving the mixture to stand at 30° C. for 20 minutes for color development, its optical density is measured at 660 nm.
Influence of various inhibitors against the enzyme of the present invention is examined under the conditions and by the method described below.
Enzyme solutions containing the enzyme of the present invention in a concentration of 20 nkatal/ml are prepared using a 50 mM borate buffer solution (pH 10), respectively. Various inhibitors in concentrations as shown in Table 11 are added to the enzyme solutions, respectively. After incubating the resulting mixtures at 30° C. for 30 minutes, the residual activity of the enzyme in the mixtures is measured. Results obtained are shown in Table 11, in which the activity is expressed in terms of relative activity assuming that the activity in the absence of inhibitors is 100%.

[1] abbreviates: inhibitor 1 mM, enzyme 20 nkatal/ml in 50 mM borate buffer pH 10, incubated 30° C. for 30 minutes, activity in the absence of inhibitors = 100%.
The mark [2] stands for this setting: inhibitor 10 mM, enzyme 20 nkatal/ml in 50 mM borate buffer pH 10, incubated 30° C. for 30 minutes, activity in the absence of inhibitors = 100%.

On to `O=C(O)c1cc[c]([Hg][Cl])cc1` [PCMB, pChloromercuribenzoic acid], for which the “Residual Activity (%)” value by setting is: under setting [1], 98%; under setting [2], 90%.

Consider `O=C(O)CN(CCN(CC(=O)O)CC(=O)O)CC(=O)O` [EDTA, Ethylenediaminetetraacetic acid], for which the “Residual Activity (%)” value (pH 10) is recorded as 104%.

Regarding `O=S(=O)(F)Cc1ccccc1` [PMSF, Phenylmethanesulfonyl fluoride], the “Residual Activity (%)” value came to 31% under setting [1] and 0.7% under setting [2]. Further, for the setting “summary of Table 11, reveals that the enzyme is a serine protease”, the “Inhibition of the enzyme (in words)” value was “inhibited by phenylmethanesulfonyl fluoride (PMSF) considerably”.
